Measurements: PubChem BioAssay AID248 (DTP/NCI, 2004)
Where “and” joins values, the source holds several entries; their conditions need not be identical. Equal entries are not always repeated. Inconclusive results and toxic doses are left out. No stated cut-off is given here; in the data, active means T/C of 150% or more; inactive means T/C below 125%.

System: L1210 leukemia ip in BDF1 mice, survival T/C
Experiment: NCI In Vivo Anticancer Drug Screen. Data for tumor model L1210 Leukemia (intraperitoneal) in B6D2F1 (BDF1) mice
Details: endpoint: mean survival time, higher = longer survival
Outline: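 In this screen, tumor-bearing mice given compound are compared to those given vehicle, and their survival values are reported as a treated-to-control quotient.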

[1] = dose: 100.0 mg/kg/injection, schedule: Q04DX003 (ip), vehicle: Klucel (hydroxypropylcellulose) (HPC)
[2] = dose: 200.0 mg/kg/injection, schedule: Q04DX003 (ip), vehicle: Klucel (hydroxypropylcellulose) (HPC)
[3] = dose: 400.0 mg/kg/injection, schedule: Q04DX003 (ip), vehicle: Klucel (hydroxypropylcellulose) (HPC)
[4] = dose: 100.0 mg/kg/injection, schedule: Q01DX009 (ip), vehicle: Klucel (hydroxypropylcellulose) (HPC)
[5] = dose: 200.0 mg/kg/injection, schedule: Q01DX009 (ip), vehicle: Klucel (hydroxypropylcellulose) (HPC)
[6] = dose: 400.0 mg/kg/injection, schedule: Q01DX009 (ip), vehicle: Klucel (hydroxypropylcellulose) (HPC)
[7] = dose: 50.0 mg/kg/injection, schedule: Q01DX009 (ip), vehicle: Klucel (hydroxypropylcellulose) (HPC)
[8] = dose: 100.0 mg/kg/injection, schedule: Q01DX001 (ip), vehicle: saline
[9] = dose: 200.0 mg/kg/injection, schedule: Q01DX001 (ip), vehicle: saline
[10] = dose: 400.0 mg/kg/injection, schedule: Q01DX001 (ip), vehicle: saline
[11] = dose: 100.0 mg/kg/injection, schedule: Q01DX009 (ip), vehicle: saline with Tween-80
[12] = dose: 100.0 mg/kg/injection, schedule: Q04DX003 (ip), vehicle: saline with Tween-80
[13] = dose: 200.0 mg/kg/injection, schedule: Q01DX009 (ip), vehicle: saline with Tween-80
[14] = dose: 200.0 mg/kg/injection, schedule: Q04DX003 (ip), vehicle: saline with Tween-80
[15] = dose: 400.0 mg/kg/injection, schedule: Q01DX009 (ip), vehicle: saline with Tween-80
[16] = dose: 400.0 mg/kg/injection, schedule: Q04DX003 (ip), vehicle: saline with Tween-80

Measured: T/C

C[N+](C)(C)C1(Cc2ccc(F)cc2)c2ccccc2-c2ccccc21
inactive: dose: 6.25 mg/kg/injection, schedule: Q01DX009 (ip), vehicle: saline with Tween-80 88 % of control | dose: 6.25 mg/kg/injection, schedule: Q04DX002 (ip), vehicle: saline with Tween-80 98 % of control | dose: 6.25 mg/kg/injection, schedule: Q04DX003 (ip), vehicle: saline with Tween-80 90 % of control | dose: 12.5 mg/kg/injection, schedule: Q04DX002 (ip), vehicle: saline with Tween-80 115 % of control | dose: 12.5 mg/kg/injection, schedule: Q04DX003 (ip), vehicle: saline with Tween-80 90 % of control | dose: 25.0 mg/kg/injection, schedule: Q01DX009 (ip), vehicle: saline with Tween-80 88 % of control | dose: 25.0 mg/kg/injection, schedule: Q04DX002 (ip), vehicle: saline with Tween-80 98 % of control | dose: 25.0 mg/kg/injection, schedule: Q04DX003 (ip), vehicle: saline with Tween-80 90 % of control

CC(=O)c1ccccc1Cc1cccc2c(Cl)cccc12
inactive: [1] 95 % of control | [2] 100 % of control | [3] 88 % of control

CCCCCCCCCCCCCCCC(=O)O
inactive: [4] 100 % of control | [1] 98 % of control | [5] 92 % of control | [2] 98 % of control | [6] 97 % of control | [3] 97 % of control

O=C(Nc1ccc(Cl)c([N+](=O)[O-])c1)Nc1nnc(Br)s1
inactive: [4] 104 % of control | [5] 90 % of control | [6] 97 % of control

Nc1ncnc2n[nH]nc12
inactive: [7] 104 % of control | [4] 106 % of control

N#Cc1c(N)ncc2c1CCCC2
inactive: [7] 102 % of control | [4] 98 % of control | [5] 105 % of control

CC(=O)Nc1ccc2ccc3ccccc3c2c1
inactive: [4] 94 % of control | [1] 98 % of control | [5] 95 % of control | [2] 98 % of control | [6] 92 % of control | [3] 94 % of control

O=C(CCN1CCCC1)c1ccc(F)cc1
inactive: dose: 25.0 mg/kg/injection, schedule: Q01DX009 (ip), vehicle: saline 109 % of control | dose: 50.0 mg/kg/injection, schedule: Q01DX009 (ip), vehicle: saline 115 % of control

Nc1c(Cl)cc(S(=O)(=O)O)cc1Br
inactive: dose: 50.0 mg/kg/injection, schedule: Q01DX001 (ip), vehicle: saline 101 % of control | [8] 103 % of control | [9] 101 % of control | [10] 101 % of control

CCCCCCSC1=C(SCCCCCC)C(=O)c2[nH]cnc2C1=O
inactive: dose: 50.0 mg/kg/injection, schedule: Q01DX001 (ip), vehicle: carboxymethylcellulose (CMC) 100 % of control | dose: 100.0 mg/kg/injection, schedule: Q01DX001 (ip), vehicle: carboxymethylcellulose (CMC) 95 % of control | dose: 200.0 mg/kg/injection, schedule: Q01DX001 (ip), vehicle: carboxymethylcellulose (CMC) 90 % of control | dose: 400.0 mg/kg/injection, schedule: Q01DX001 (ip), vehicle: carboxymethylcellulose (CMC) 90 % of control

O=CC12C=CC(CC1)C1C(=O)OC(=O)C12 (stereo not given)
inactive: dose: 75.0 mg/kg/injection, schedule: Q01DX009 (ip), vehicle: saline 112 % of control | [8] 91 % of control | dose: 150.0 mg/kg/injection, schedule: Q01DX009 (ip), vehicle: saline 97 % of control | [9] 98 % of control | dose: 300.0 mg/kg/injection, schedule: Q01DX009 (ip), vehicle: saline 91 % of control | [10] 96 % of control

C/C(=N/OC(=O)N(C)C)c1cccc(Cl)c1
inactive: dose: 44.0 mg/kg/injection, schedule: Q01DX001 (ip), vehicle: saline 95 % of control and 103 % of control | dose: 66.0 mg/kg/injection, schedule: Q01DX001 (ip), vehicle: saline 95 % of control and 101 % of control | [8] 94 % of control and 95 % of control | dose: 150.0 mg/kg/injection, schedule: Q01DX001 (ip), vehicle: saline 101 % of control and 112 % of control | [9] 97 % of control | [10] 103 % of control

C/C(=C\C(C)(C)C(C)(C)C)C(C)(C)C
inactive: dose: 50.0 mg/kg/injection, schedule: Q04DX002 (ip), vehicle: saline with Tween-80 100 % of control | dose: 100.0 mg/kg/injection, schedule: Q04DX002 (ip), vehicle: saline with Tween-80 95 % of control | dose: 200.0 mg/kg/injection, schedule: Q04DX002 (ip), vehicle: saline with Tween-80 92 % of control | dose: 400.0 mg/kg/injection, schedule: Q04DX002 (ip), vehicle: saline with Tween-80 92 % of control

COc1ccc(C(=O)CCCCl)c(OC)c1
inactive: [11] 95 % of control | [12] 89 % of control | [13] 93 % of control | [14] 96 % of control | [15] 93 % of control | [16] 91 % of control

CCCCCCCC/C=C\CCCCCCCC(=O)OCCCCC
inactive: dose: 100.0 mg/kg/injection, schedule: Q01DX001 (ip), vehicle: Klucel (hydroxypropylcellulose) (HPC) 93 % of control | dose: 100.0 mg/kg/injection, schedule: Q01DX009 (ip), vehicle: saline sonified 102 % of control | [11] 108 % of control | [12] 93 % of control | dose: 200.0 mg/kg/injection, schedule: Q01DX001 (ip), vehicle: Klucel (hydroxypropylcellulose) (HPC) 92 % of control | dose: 200.0 mg/kg/injection, schedule: Q01DX009 (ip), vehicle: saline sonified 100 % of control | [13] 98 % of control | [14] 91 % of control | dose: 400.0 mg/kg/injection, schedule: Q01DX001 (ip), vehicle: Klucel (hydroxypropylcellulose) (HPC) 103 % of control | dose: 400.0 mg/kg/injection, schedule: Q01DX009 (ip), vehicle: saline sonified 93 % of control | [15] 95 % of control | [16] 95 % of control
